Key:
[1] = tested on: calpain activity in SH-SY5Y cells (Spectrin); test: SH-SY5Y Spectrin cellular calpain inhibition; type: cell-based
Human Calpain 9/NS1 = biological target: T1, Human Calpain 9/NS1 (Homo sapiens, UniProt O14815); test: Biochemical inhibition of calpain 9, continuous fluorescence (FRET substrate) assay; details: mean; read-out: Human Calpain 9/NS1 IC50 (nM)_MEAN
T1 sequence (O14815 1-690): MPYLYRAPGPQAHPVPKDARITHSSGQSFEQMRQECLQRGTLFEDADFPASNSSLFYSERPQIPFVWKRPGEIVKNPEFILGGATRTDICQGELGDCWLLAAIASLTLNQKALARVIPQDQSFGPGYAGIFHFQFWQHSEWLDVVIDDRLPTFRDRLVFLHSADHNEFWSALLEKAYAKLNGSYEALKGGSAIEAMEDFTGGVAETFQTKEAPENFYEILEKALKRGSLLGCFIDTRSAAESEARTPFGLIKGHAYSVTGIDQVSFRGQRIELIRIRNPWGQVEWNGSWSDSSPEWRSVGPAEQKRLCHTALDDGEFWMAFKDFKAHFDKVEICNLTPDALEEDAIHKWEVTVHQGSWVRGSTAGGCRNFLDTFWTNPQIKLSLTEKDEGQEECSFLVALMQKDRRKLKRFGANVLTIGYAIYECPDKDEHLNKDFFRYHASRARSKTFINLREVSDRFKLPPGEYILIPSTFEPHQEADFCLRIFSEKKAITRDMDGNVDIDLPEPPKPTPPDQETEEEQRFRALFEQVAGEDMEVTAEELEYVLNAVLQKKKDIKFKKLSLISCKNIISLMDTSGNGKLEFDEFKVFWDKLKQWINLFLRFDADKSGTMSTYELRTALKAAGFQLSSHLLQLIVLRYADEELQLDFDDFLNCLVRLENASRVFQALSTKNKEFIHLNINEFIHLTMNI
T1 sequence (P04632 1-268 partner): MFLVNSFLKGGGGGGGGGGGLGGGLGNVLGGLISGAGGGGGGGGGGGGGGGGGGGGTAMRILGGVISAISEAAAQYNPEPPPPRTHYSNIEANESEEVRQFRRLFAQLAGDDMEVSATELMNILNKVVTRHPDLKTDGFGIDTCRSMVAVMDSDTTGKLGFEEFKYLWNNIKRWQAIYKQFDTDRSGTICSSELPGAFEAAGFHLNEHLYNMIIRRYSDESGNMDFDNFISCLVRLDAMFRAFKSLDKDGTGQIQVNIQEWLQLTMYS
Method: (§1) Calpain 1, 2, and 9 activity and inhibition thereof are assessed by means of a continuous fluorescence assay. The SensoLyte 520 Calpain substrate (Anaspec Inc) is optimized for detecting calpain activity. This substrate contains a novel internally quenched 5-FAM/QXL™ 520 FRET pair. Calpains 1, 2, and 9 cleave the FRET substrate into two separate fragments resulting in an increase of 5-FAM fluorescence that is proportional to calpain activity.
(§2) Assays are typically setup in black 384-well plates using automated liquid handling as follows. Calpain assay base buffer typically contains 50 mM Tris, pH 7.5, 100 mM NaCl and 1 mM DTT. Inhibitors are serially diluted in DMSO and used to setup 2× mixtures with calpains in the aforementioned buffer. After incubation at ambient temperature (25 C), the reaction is initiated by adding a 2× mix of the fluorescent peptide substrate and CaCl2 (required for in-situ calpain activation) in the same buffer. Reaction progress curve data are typically collected for 10 min using excitation/emission wavelengths of 490 nm/520 nm on SpectraMax i3x or the FLIPR-Tetra plate readers (Molecular Devices Inc). Reaction rates were calculated from progress curve slopes typically over 1-5 min. Dose response curves (rate vs. log inhibitor concentration) were typically fit to a 4-parameter logistic function to extract IC50 values.

Human Calpain 1/NS1 = biological target: T2, Human Calpain 1/NS1 (Homo sapiens, UniProt P07384); test: Biochemical inhibition of calpain 1, continuous fluorescence (FRET substrate) assay; details: mean; read-out: Human Calpain 1/NS1 IC50 (nM)_MEAN
T2 sequence (P07384 1-714): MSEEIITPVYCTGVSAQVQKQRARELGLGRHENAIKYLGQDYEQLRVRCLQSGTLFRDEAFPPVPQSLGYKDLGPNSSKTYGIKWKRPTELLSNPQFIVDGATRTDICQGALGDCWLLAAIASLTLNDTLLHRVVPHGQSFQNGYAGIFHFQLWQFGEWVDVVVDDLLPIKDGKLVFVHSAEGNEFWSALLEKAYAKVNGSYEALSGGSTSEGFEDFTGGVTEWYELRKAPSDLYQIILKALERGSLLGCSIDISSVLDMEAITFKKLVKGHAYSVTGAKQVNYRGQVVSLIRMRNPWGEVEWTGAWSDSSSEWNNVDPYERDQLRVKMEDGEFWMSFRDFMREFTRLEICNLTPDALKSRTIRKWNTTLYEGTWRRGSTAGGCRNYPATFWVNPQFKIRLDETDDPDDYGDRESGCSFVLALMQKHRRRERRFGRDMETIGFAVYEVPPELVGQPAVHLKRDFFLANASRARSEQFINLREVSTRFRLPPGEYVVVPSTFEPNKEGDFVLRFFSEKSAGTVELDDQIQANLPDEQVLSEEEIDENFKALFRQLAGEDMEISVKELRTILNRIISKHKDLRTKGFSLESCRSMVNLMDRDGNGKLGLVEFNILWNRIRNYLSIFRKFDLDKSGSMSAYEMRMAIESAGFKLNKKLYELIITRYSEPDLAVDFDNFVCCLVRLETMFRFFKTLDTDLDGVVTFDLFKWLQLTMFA
T2 sequence (P04632 1-268 partner): T1 sequence (P04632 1-268 partner)
Method: as §1, §2

Human Calpain 2/NS1 = biological target: T3, Human Calpain 2/NS1 (Homo sapiens, UniProt P17655); test: Biochemical inhibition of calpain 2, continuous fluorescence (FRET substrate) assay; details: mean; read-out: Human Calpain 2/NS1 1C50 [sic] (nM)_MEAN
T3 sequence (P17655 1-700): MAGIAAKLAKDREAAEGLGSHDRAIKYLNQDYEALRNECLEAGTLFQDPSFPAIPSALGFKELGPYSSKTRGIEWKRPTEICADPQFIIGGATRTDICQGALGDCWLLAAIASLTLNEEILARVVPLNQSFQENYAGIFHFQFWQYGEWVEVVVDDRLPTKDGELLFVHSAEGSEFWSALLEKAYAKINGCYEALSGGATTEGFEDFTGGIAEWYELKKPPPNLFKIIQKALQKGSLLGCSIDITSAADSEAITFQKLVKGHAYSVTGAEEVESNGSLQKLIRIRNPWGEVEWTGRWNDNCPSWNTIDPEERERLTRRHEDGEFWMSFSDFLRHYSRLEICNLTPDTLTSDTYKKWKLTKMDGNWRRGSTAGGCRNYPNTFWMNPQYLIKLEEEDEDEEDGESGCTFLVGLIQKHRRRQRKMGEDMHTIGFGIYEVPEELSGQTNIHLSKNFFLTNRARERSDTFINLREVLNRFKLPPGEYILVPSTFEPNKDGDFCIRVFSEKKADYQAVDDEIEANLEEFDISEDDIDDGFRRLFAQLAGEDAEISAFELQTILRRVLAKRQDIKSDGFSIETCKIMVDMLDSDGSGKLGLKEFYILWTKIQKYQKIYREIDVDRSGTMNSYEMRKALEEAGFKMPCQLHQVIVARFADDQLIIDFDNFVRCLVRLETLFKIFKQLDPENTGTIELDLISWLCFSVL
T3 sequence (P04632 1-268 partner): T1 sequence (P04632 1-268 partner)
Method: as §1, §2

[2] = tested on: calpain activity in SH-SY5Y cells; test: SH-SY5Y cellular calpain activity, Suc-LLVY-AMC fluorescence assay; type: cell-based; details: Suc-LLVY-AMC substrate
Method: Calpain activity in SH-SY5Y cells and inhibition thereof were assessed by means of a homogeneous, fluorescence assay that uses the cell-permeable and pro-fluorescent calpain substrate Suc-LLVY-AMC (Sigma-Aldrich Inc). Upon intracellular calpain cleavage of Suc-LLVY-AMC, fluorescent amino-methyl-coumarin (AMC) is released into the media resulting in a continuous increase in fluorescence signal that is proportional to intra-cellular calpain activity.
Assays were typically setup by seeding SH-SY5Y cells in black 384-well plates at 40 k/per well in RPMI-1640 containing 1% serum followed by 37 C overnight incubation. Next morning, cells were pre-incubated for 30 min with serially diluted compounds followed by addition of 100 uM of Suc-LLVY-AMC substrate. The continuous increase in AMC fluorescence is monitored using a FLIPR, Tetra plate reader (Molecular Devices Inc) and slopes measured to report calpain activity. Dose response curves (slopes vs. log inhibitor concentration) were typically fit to a 4-parameter logistic function to extract IC50 values.

IC50 [1] | IC50 (Human Calpain 9/NS1) | IC50 (Human Calpain 1/NS1) | IC50 (Human Calpain 2/NS1) | IC50 [2] | SMILES
> 25 µM | < 3000 nM | < 3000 nM | < 3000 nM | – | NC(=O)C(=O)C(Cc1ccccc1)NC(=O)C1c2ccccc2Oc2ccccc21 (centres unmarked) [Compound 5, N-(4-AMINO-3,4-DIOXO-1-PHENYLBUTAN-2-YL)-9H-XANTHENE-9-CARBOXAMIDE]
10 to 25 µM | < 3000 nM | < 3000 nM | < 3000 nM | < 10 µM | Cn1c2ccccc2c2c(C(=O)NC(Cc3ccccc3)C(=O)C(N)=O)cccc21 (centres unmarked) [Compound 11, N-(4-AMINO-3,4-DIOXO-1-PHENYLBUTAN-2-YL)-9-METHYL-9H-CARBAZOLE-4-CARBOXAMIDE]
10 to 25 µM | < 3000 nM | < 3000 nM | < 3000 nM | 10 to 25 µM | NC(=O)C(=O)C(Cc1ccccc1)NC(=O)c1c(Cl)ccc2ccccc12 (centres unmarked) [Compound 13, N-(4-AMINO-3,4-DIOXO-1-PHENYLBUTAN-2-YL)-2-CHLORO-1-NAPHTHAMIDE]
10 to 25 µM | < 3000 nM | < 3000 nM | < 3000 nM | < 10 µM | NC(=O)C(=O)[C@H](Cc1ccccc1)NC(=O)c1cc(Cl)ccc1Cl [Compound 22, (S)—N-(4-AMINO-3,4-DIOXO-1-PHENYLBUTAN-2-YL)-2,5-DICHLOROBENZAMIDE]
– | < 3000 nM | < 3000 nM | < 3000 nM | < 10 µM | NC(=O)C(=O)[C@H](Cc1ccccc1)NC(=O)c1ccccc1Br [Compound 36, (S)—N-(4-AMINO-3,4-DIOXO-1-PHENYLBUTAN-2-YL)-2-BROMOBENZAMIDE]

More lines, now with the values behind:

SMILES | IC50 [1] | IC50 (Human Calpain 9/NS1) | IC50 (Human Calpain 1/NS1) | IC50 (Human Calpain 2/NS1) | IC50 [2]
NC(=O)C(=O)[C@H](Cc1ccccc1)NC(=O)c1c(Cl)cccc1Cl [Compound 1, (S)—N-(4-AMINO-3,4-DIOXO-1-PHENYLBUTAN-2-YL)-2,6-DICHLOROBENZAMIDE] | 10 to 25 µM | < 3000 nM | < 3000 nM | < 3000 nM | > 25 µM
NC(=O)C(=O)[C@H](Cc1ccccc1)NC(=O)c1c(F)cc(F)cc1F [Compound 3, (S)—N-(4-AMINO-3,4-DIOXO-1-PHENYLBUTAN-2-YL)-2,4,6-TRIFLUOROBENZAMIDE] | > 25 µM | < 3000 nM | < 3000 nM | < 3000 nM | 10 to 25 µM
NC(=O)C(=O)C(Cc1ccccc1)NC(=O)c1cccc2c1Oc1ccccc1O2 (centres unmarked) [Compound 7, N-(4-AMINO-3,4-DIOXO-1-PHENYLBUTAN-2-YL)DIBENZO[b,e][1,4]DIOXINE-1-CARBOXAMIDE] | 10 to 25 µM | < 3000 nM | < 3000 nM | < 3000 nM | > 25 µM
NC(=O)C(=O)C(Cc1ccccc1)NC(=O)c1cccc2c1oc1ccccc12 (centres unmarked) [Compound 9, N-(4-AMINO-3,4-DIOXO-1-PHENYLBUTAN-2-YL)DIBENZO[b,d]FURAN-4-CARBOXAMIDE] | > 25 µM | < 3000 nM | < 3000 nM | < 3000 nM | > 25 µM
Cn1c2ccccc2c2cccc(C(=O)NC(Cc3ccccc3)C(=O)C(N)=O)c21 (centres unmarked) [Compound 12] | > 25 µM | < 3000 nM | < 3000 nM | < 3000 nM | < 10 µM
NC(=O)C(=O)[C@H](Cc1ccccc1)NC(=O)c1c(Cl)cccc1Br [Compound 14, (S)—N-(4-AMINO-3,4-DIOXO-1-PHENYLBUTAN-2-YL)-2-BROMO-6-CHLOROBENZAMIDE] | 10 to 25 µM | < 3000 nM | < 3000 nM | < 3000 nM | < 10 µM
NC(=O)C(=O)[C@H](Cc1ccccc1)NC(=O)c1c(F)cccc1F [Compound 15, (S)—N-(4-AMINO-3,4-DIOXO-1-PHENYLBUTAN-2-YL)-2,6-DIFLUOROBENZAMIDE] | 10 to 25 µM | < 3000 nM | < 3000 nM | < 3000 nM | 10 to 25 µM
NC(=O)C(=O)[C@H](Cc1ccccc1)NC(=O)c1c(F)cccc1C(F)(F)F [Compound 16, (S)—N-(4-AMINO-3,4-DIOXO-1-PHENYLBUTAIN-2-YL)-2-FLUORO-6-(TRIFLUOROMETHYL)BENZAMIDE] | 10 to 25 µM | < 3000 nM | < 3000 nM | < 3000 nM | > 25 µM
NC(=O)C(=O)C(Cc1ccccc1)NC(=O)c1ccc2c(c1)OCO2 (centres unmarked) [Compound 24, N-(4-AMINO-3,4-DIOXO-1-PHENYLBUTAN-2-YL)BENZO[d][1,3]DIOXOLE-5-CARBOXAMIDE] | > 25 µM | < 3000 nM | 3000 to 10000 nM | < 3000 nM | –
O=CC(Cc1ccccc1)NC(=O)c1c(Cl)cccc1Br (centres unmarked) [Compound 41, 2-BROMO-6-CHLORO-N-(1-OXO-3-PHENYLPROPAN-2-YL)BENZAMIDE] | 10 to 25 µM | < 3000 nM | 3000 to 10000 nM | < 3000 nM | –

Source: US20210347727A1 (BLADE THERAPEUTICS, INC., priority 2017, published 2021)
